The values below come from patent US7094773B2, “LTA4 hydrolase inhibitors” (Institut National de la Santa et de la rescherche Medicale …, priority 1999, dated 2006).

Structures can show the parent of a compound that is named as a salt.

System in the first data set: not given
Assay: not given
Conditions: not given
The compound `Br.NC(CCCOc1ccc(Cc2ccccc2)cc1)C(=O)O` (racemic) had a melting point of 199 °C. On to `Br.NC(CCCOc1ccc(Oc2ccccc2)cc1)C(=O)O` (racemic), for which the melting point was found to be 162 °C. `Br.NC(CCCCCOc1ccc(Cc2ccccc2)cc1)C(=O)O` (racemic) displayed a melting point of 100 °C. In turn, `Br.NC(CCCCOc1ccc(-c2ccccc2)cc1)C(=O)O` (racemic) had a melting point of 185 °C. In turn, `Br.CCCCCCOc1ccc(OCCCCC(N)C(=O)O)cc1` (racemic) yielded a melting point of 135 °C. `Br.NC(CCCCCCOc1ccc(Cc2ccccc2)cc1)C(=O)O` (racemic) returned a melting point of 120 °C. Take `Br.NC(CCCCOc1ccc(Oc2ccccc2)cc1)C(=O)O` (racemic): the melting point is 130 °C.

The target in the next data set is T1, human recombinant LTA4 hydrolase (Homo sapiens, UniProt P09960).
T1 construct: made in house; host or cells: E. coli JM109
T1 sequence (P09960 1-611): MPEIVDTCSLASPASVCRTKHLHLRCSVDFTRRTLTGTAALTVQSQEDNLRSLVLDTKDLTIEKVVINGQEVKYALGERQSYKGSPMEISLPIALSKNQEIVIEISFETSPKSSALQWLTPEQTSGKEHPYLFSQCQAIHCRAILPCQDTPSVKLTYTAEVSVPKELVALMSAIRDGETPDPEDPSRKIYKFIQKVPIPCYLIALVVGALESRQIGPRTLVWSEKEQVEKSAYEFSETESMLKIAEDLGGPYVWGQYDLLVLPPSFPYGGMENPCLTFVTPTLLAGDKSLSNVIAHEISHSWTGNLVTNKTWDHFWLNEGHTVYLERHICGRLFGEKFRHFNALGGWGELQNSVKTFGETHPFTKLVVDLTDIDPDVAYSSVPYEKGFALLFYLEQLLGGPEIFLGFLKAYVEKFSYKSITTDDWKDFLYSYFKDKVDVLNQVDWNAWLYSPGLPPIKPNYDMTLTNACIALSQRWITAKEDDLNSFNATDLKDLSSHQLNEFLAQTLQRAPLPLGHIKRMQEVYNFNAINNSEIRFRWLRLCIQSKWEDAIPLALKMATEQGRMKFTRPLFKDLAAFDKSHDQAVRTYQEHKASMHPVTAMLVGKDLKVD
Description: Inhibition of the aminopeptidase activity of recombinant LTA4 hydrolase (fluorimetric, Ala-AMC substrate). Type of data set: biochemical. As to conditions: in vitro. As for the experimental part: The compounds were tested using human recombinant LTA4 hydrolase (Minami et al., FEBS Letters, 1988, 229: 279). The LTA4 hydrolase expressed by E. coli JM109 is purified mainly according to Minami et al., (J. Biol. Chem., 1987, 262: 13873).
The inhibition of the aminopeptidase activity of the enzyme is measured by means of a fluorimetric method in 96-well microplates. The recombinant enzyme (0.5 μg in 50 μl of 50 mM Tris-HCl pH 7.4) is preincubated for 10 minutes at 37° C. in the presence of inhibitor and of dithiothreitol (DTT, 10^−5 M). The substrate alanyl-amido-methylcoumarin (Ala-AMC, 25 μM-Tris HCl 50 mM, pH 7.4) is added and the incubation is continued for 15 minutes at 37° C. The release of AMC is measured by fluorimetry.
Regarding `NC(CCCCOc1ccc(Cc2ccccc2)cc1)C(=O)O` (racemic) [compound 51, 2-(RS)-amino-6-(4-benzylphenoxy)hexanoic acid hydrobromide], the Ki is 32 nM.

As usually defined, the melting point is the temperature, or range, at which the solid turns liquid. By Ki is commonly meant the equilibrium dissociation constant of an inhibitor or competing ligand from its target.
